Measurements published in ChEMBL document CHEMBL1148683, “Synthesis and monoamine transporter affinity of front bridged tricyclic 3beta-(4'-halo or 4'-methyl)phenyltropanes bearing methylene or carbomethoxymethylene on the bridge to the 2beta-position” (Bioorg Med Chem Lett, 2006).

What was measured:
[1] = target: Sodium-dependent serotonin transporter (Homo sapiens, UniProt P31645); assay: Displacement of [3H]citalopram from human SERT transfected in HEK293 cells; assay type: cell-based
[2] = target: Sodium-dependent dopamine transporter (Homo sapiens, UniProt Q01959); assay: Displacement of [125I]RTI-55 from human DAT transfected in HEK293 cells; assay type: cell-based
[3] = target: T1, Sodium-dependent noradrenaline transporter (Homo sapiens, UniProt P23975); assay: Displacement of [3H]nisoxetine from human NET transfected in HEK293 cells; assay type: cell-based
Rhesus monkey [4] = assay: Selective uptake in caudate over occipital cortex of iv dosed rhesus monkey after 105 mins by microPET imaging assay; assay type: ADME, organism-based, Macaca mulatta; conditions: in vivo, 1.75 h
Rhesus monkey [5] = assay: Selective uptake in medulla over occipital cortex of iv dosed rhesus monkey after 105 mins by microPET imaging assay; assay type: ADME, organism-based, Macaca mulatta; conditions: in vivo, 1.75 h
Rhesus monkey [6] = assay: Selective uptake in midbrain over occipital cortex of iv dosed rhesus monkey after 105 mins by microPET imaging assay; assay type: ADME, organism-based, Macaca mulatta, Brain; conditions: in vivo, 1.75 h
Rhesus monkey [7] = assay: Selective uptake in pons over occipital cortex of iv dosed rhesus monkey after 105 mins by microPET imaging assay; assay type: ADME, organism-based, Macaca mulatta; conditions: in vivo, 1.75 h
Rhesus monkey [8] = assay: Selective uptake in cerebellum over occipital cortex of iv dosed rhesus monkey after 25 mins by microPET imaging assay; assay type: ADME, organism-based, Macaca mulatta; conditions: in vivo
Rhesus monkey [9] = assay: Selective uptake in thalamus over occipital cortex of iv dosed rhesus monkey after 105 mins by microPET imaging assay; assay type: ADME, organism-based, Macaca mulatta; conditions: in vivo, 1.75 h
[10] = target: T1, Sodium-dependent noradrenaline transporter; assay: Inhibition of (-)-[3H]NE uptake at NET
Rhesus monkey [11] = assay: Selective uptake in putamen over occipital cortex of iv dosed rhesus monkey after 105 mins by microPET imaging assay; assay type: ADME, organism-based, Macaca mulatta; conditions: in vivo, 1.75 h
[12] = target: Monoamine transporters; serotonin & dopamine (Homo sapiens) (UniProt P31645+Q01959); assay: Selectivity for human SERT over DAT; assay type: protein assay
[13] = target: Serotonin and norepinephrine transporters (SERT/NET) (Homo sapiens) (UniProt P31645+P23975); assay: Selectivity for human SERT over NET; assay type: protein assay
Sequence of Serotonin and norepinephrine transporters (SERT/NET) (Homo sapiens) (P23975 whole entry, looked up): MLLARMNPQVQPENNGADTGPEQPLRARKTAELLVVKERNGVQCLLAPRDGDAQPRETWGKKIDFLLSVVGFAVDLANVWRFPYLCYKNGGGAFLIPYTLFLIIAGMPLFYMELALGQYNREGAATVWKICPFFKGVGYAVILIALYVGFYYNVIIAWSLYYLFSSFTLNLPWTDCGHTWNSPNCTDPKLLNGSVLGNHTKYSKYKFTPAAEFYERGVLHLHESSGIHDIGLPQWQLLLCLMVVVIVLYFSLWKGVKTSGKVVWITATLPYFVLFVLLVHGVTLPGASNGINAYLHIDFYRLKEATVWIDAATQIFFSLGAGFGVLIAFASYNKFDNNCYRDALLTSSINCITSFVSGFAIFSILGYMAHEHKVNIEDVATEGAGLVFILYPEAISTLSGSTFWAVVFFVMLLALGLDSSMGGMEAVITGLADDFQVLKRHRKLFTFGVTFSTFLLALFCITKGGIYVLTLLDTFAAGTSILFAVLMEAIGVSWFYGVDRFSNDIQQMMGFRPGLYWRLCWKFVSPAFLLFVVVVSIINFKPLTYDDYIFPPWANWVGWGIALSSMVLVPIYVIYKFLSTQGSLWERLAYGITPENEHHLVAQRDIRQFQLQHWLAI
Sequence of Serotonin and norepinephrine transporters (SERT/NET) (Homo sapiens) (P31645 whole entry, looked up): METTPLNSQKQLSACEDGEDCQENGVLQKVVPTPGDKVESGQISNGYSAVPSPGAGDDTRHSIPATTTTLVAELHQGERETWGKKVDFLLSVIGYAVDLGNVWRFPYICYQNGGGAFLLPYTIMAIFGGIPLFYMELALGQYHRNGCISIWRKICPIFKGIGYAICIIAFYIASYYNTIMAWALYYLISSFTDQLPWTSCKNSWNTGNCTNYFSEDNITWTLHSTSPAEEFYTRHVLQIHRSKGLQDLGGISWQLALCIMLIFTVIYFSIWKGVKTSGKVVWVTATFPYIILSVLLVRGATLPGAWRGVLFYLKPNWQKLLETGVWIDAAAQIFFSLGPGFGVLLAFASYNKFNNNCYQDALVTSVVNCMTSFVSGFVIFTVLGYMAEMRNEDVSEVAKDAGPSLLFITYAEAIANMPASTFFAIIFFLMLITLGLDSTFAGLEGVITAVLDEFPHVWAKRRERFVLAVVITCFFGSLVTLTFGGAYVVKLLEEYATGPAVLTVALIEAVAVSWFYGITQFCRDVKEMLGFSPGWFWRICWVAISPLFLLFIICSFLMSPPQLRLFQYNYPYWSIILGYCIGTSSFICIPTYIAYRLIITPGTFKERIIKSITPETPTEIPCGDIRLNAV

Sequence of Sodium-dependent serotonin transporter (P31645 whole entry): as the sequence (P31645 whole entry, looked up) above
T1 sequence (P23975 whole entry): as the sequence (P23975 whole entry, looked up) above
Sequence of Sodium-dependent dopamine transporter (Q01959 whole entry): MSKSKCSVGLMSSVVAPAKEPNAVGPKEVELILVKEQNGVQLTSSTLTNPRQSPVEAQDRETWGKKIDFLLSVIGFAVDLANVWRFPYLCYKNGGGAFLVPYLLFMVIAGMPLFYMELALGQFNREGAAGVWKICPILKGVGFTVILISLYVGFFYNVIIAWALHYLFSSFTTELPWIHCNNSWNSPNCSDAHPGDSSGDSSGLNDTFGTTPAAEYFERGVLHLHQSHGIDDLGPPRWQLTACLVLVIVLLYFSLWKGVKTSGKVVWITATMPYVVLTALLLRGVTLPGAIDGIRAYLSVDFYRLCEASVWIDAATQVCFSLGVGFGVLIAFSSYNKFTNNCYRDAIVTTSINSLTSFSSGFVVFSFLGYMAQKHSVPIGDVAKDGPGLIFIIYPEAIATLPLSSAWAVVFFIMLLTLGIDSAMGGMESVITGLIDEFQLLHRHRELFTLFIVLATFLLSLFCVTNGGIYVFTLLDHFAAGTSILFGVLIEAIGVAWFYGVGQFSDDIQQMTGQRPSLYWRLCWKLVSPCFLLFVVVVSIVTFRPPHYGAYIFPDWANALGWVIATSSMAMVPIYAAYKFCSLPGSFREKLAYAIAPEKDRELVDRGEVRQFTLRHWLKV
Sequence of Monoamine transporters; serotonin & dopamine (Homo sapiens) (P31645 whole entry, looked up): as the sequence (P31645 whole entry, looked up) above
Sequence of Monoamine transporters; serotonin & dopamine (Homo sapiens) (Q01959 whole entry, looked up): as the sequence (Q01959 whole entry) above

SMILES | Ki [1] [nM] | Ki [2] [nM] | Ki [3] [nM] | further results
C=C1CN2C3CCC2C1C(c1ccc(Cl)cc1)C3 (stereo unspecified) | 0.82 | 12.3 | 4.84 | –
COC(=O)/C=C1/CN2C3CCC2C1C(c1ccc(Br)cc1)C3 (stereo unspecified) | 5.63 | 2.94 | 12.5 | –
C=C1CN2C3CCC2C1C(c1ccc(C)cc1)C3 (stereo unspecified) | 7.77 | 41 | 17.3 | Ratio (Rhesus monkey [4]): 1.47; Ratio (Rhesus monkey [5]): 1.36; Ratio (Rhesus monkey [6]): 1.53; Ratio (Rhesus monkey [7]): 1.52; Ratio (Rhesus monkey [8]): 1.39; Ratio (Rhesus monkey [9]): 1.48; IC50 [10]: 2.2 nM; Ratio (Rhesus monkey [11]): 1.83
COC(=O)/C=C1/CN2C3CCC2C1C(c1ccc(C)cc1)C3 (stereo unspecified) | 98.3 | 13.2 | 25.5 | –
C=C1CN2C3CCC2C1C(c1ccc(Br)cc1)C3 (stereo unspecified) | 0.28 | 41.9 | 2.94 | –
C=C1CN2C3CCC2C1C(c1ccc(I)cc1)C3 (stereo unspecified) | 0.09 | 8.48 | 5.87 | Selectivity ratio [12]: 94; Selectivity ratio [13]: 65
COC(=O)/C=C1/CN2C3CCC2C1C(c1ccc(Cl)cc1)C3 (stereo unspecified) | 18.7 | 4.54 | 13 | –
